Source: patent US20220380317A1, “COMPOUNDS HAVING ANTIMALARIAL ACTIVITY” (NANYANG TECHNOLOGICAL UNIVERSITY, priority 2019, published 2022)
Read-outs that look alike come from different tables or passages of the source.

Legend:
P. falciparum = assay: in vitro P. falciparum growth inhibition / dose response assay (Hoechst 33342 FACS read out); type: cell-based, Plasmodium falciparum; conditions: for IC50: in vitro, FIG. 7B, read-out: affinity (IC50 values, in vitro anti-parasitic activity)
Protocol: For the in vitro P. falciparum culture, P. falciparum 3D7, Dd2, K1, T994, W2, and W2mef cell lines were obtained from Malaria Research and Reference Reagent Resource Center (MR4), BEI Resources. Artemisinin-resistant and -sensitive parasite field isolates from Ratanakiri, Cambodia were obtained by request from the Tracking Resistance to Artemisinin Collaboration (TRAC). In vitro parasite culture was performed as described by Maier and Rug (Methods Mol Bio 2013; 923:3-15). Briefly, cultures were maintained with RPMI medium supplemented with Albumax II; […] RPMI-1640 (Gibco, Life Technologies), 2.5 g/L Albumax II (Gibco, Life Technologies), 2.3 g/L Sodium Bicarbonate (Sigma-Aldrich), 50 mg/L Hypoxanthine (Sigma-Aldrich), 10 mg/L Gentamicin Sulphate (Gibco, Life Technologies), in 2-3% haematocrit human RBCs collected via patient donation at National University Hospital, Singapore. Cultures were maintained with a special mixed gas of 3% O2, 5% CO2, balanced with N2 (SOXAL, Air Liquide, Singapore). For cultures grown in plate format, plates were kept in a sealed bag filled with mixed gas. Parasitemia and parasite stages were checked by microscopy of blood smears fixed in Methanol (Merck), stained in Giemsa (Sigma-Aldrich) in 1× Tris-Base, Acetic Acid, EDTA (TAE) buffer (analytical grade, Fischer US).
Synchronization of ring stage parasites (0-20 hour IDC) was done by incubating packed RBC culture with 5% (w/v) D-Sorbitol (Sigma-Aldrich) at 37° C. for 20 minutes. Cultures were washed with incomplete RPMI (iRPMI), 2,200 rpm, 3 minutes, brake 1 to remove sorbitol and cell debris. Late stage parasites (30-48 hour IDC) were isolated using a 68% Percoll (MP Biomedicals) gradient prepared with 1× Phosphate Buffer Saline (PBS) and iRPMI. Packed parasite cultures were diluted with iRPMI 1:5, then layer carefully atop of the 68% Percoll gradient in a 15 mL Falcon tube. Tubes were spun at 2,200 rpm for 20 minutes, brake 0. […]
In a mid-throughput compound library screen, compounds were screened for antiparasitic activity by growth rate over a duration of 60 hrs (slightly over one IDC). ˜1% parasitemia of 0-3hpi ring stage culture in 2% haematocrit were treated with 10 μM of library compound (0.1% final DMSO concentration), and seeded into 96well flat bottom plates. […] After 60 hr of treatment (to allow ring stages to develop a more defined morphology), taken for Fluorescent-activated Cell Sorting (FACS) read out.
Assay read out was done by staining with Hoechst 33342 (Excitation 350 nm, Emission 461 nm; Molecular Probes, Life Technologies), a cell permeable DNA staining dye. […] Cells were read via a High Throughput Sampler (HTS)-coupled FACS machine (BD Biosciences) in the UV laser excitation channel (Excitation 355 nm). […]

P. berghei [1] = assay: in vivo four-day suppression test; design: species or system Balb/c mice; conditions: for dose required to achieve >95% killing: once daily Days 1 to 4, parasitemia measured on Day 5
Protocol: Four-week-old Balb/c mice were challenged with […] P. berghei parasites intravenously on Day 0. […] Parasitemia was measured on Day 5, and the following formula was used to measure in vivo activity;

[2] = system: lung, kidney, and liver epithelial cells; assay: toxicity in epithelial cells; type: cell-based; conditions: at 1000-folds in excess of the therapeutic dose
P. berghei [3] = assay: in vivo growth suppression test in P. berghei BALB/c mice model; conditions: 30 mg/kg intraperitoneally once daily for four days
Protocol: In a next step, the compound's in vitro activity was validated in vivo in a P. berghei BALB/c mice model. A growth suppression test was done by intraperitoneally infecting 4-week old Balb/c mice with GFP-expressing parasites, and allowing the parasitemia to rise to 3-4%. Subsequently, different doses of the compound were administered intraperitoneally once daily over four days.
Tail snips were done once daily to obtain blood samples for the measurement of parasitemia by FACS.

[4] = target: T1, Falcilysin (FLN, PlasmoDB geneID: PF3D7_1360800) (Plasmodium falciparum, UniProt Q76NL8); assay: cell-free enzymatic inhibition assay with recombinant FLN and fluorescent-quencher peptide substrate; type: biochemical; conditions: 1 mM, fluorescence at 490 nm over 7 min
T1 construct: gift from Zbynek Bozdech, School of Biological Sciences, NTU
Protocol: In order to validate the results obtained from the CETSA screen, a cell-free enzymatic inhibition assay using recombinant-FLN and a fluorescent-quencher tagged 10-peptide substrate of FLN was employed. Recombinant FLN and the Dabcyl-[…] (SEQ ID NO:3)-Edans fluorescent-quencher peptides were a gift from Zbynek Bozdech of School of Biological Sciences, NTU. Briefly, recombinant FLN at a final concentration of 0.3 μg/ml in assay buffer (50 mM Bis-tris, pH 7.2) was prepared. […] Just prior to the read out, recombinant FLN in assay buffer was added. VO was determined by monitoring fluorescence (Aex=340 nm, Aem=490) over 7 min on a Tecan Infinite M200 Pro plate reader. Assays were done with two technical replicates each. Data of three biological replicates were averaged and plot on Microsoft excel to compare the slope of the fluorescence signal.

T1 sequence (Q76NL8 whole entry): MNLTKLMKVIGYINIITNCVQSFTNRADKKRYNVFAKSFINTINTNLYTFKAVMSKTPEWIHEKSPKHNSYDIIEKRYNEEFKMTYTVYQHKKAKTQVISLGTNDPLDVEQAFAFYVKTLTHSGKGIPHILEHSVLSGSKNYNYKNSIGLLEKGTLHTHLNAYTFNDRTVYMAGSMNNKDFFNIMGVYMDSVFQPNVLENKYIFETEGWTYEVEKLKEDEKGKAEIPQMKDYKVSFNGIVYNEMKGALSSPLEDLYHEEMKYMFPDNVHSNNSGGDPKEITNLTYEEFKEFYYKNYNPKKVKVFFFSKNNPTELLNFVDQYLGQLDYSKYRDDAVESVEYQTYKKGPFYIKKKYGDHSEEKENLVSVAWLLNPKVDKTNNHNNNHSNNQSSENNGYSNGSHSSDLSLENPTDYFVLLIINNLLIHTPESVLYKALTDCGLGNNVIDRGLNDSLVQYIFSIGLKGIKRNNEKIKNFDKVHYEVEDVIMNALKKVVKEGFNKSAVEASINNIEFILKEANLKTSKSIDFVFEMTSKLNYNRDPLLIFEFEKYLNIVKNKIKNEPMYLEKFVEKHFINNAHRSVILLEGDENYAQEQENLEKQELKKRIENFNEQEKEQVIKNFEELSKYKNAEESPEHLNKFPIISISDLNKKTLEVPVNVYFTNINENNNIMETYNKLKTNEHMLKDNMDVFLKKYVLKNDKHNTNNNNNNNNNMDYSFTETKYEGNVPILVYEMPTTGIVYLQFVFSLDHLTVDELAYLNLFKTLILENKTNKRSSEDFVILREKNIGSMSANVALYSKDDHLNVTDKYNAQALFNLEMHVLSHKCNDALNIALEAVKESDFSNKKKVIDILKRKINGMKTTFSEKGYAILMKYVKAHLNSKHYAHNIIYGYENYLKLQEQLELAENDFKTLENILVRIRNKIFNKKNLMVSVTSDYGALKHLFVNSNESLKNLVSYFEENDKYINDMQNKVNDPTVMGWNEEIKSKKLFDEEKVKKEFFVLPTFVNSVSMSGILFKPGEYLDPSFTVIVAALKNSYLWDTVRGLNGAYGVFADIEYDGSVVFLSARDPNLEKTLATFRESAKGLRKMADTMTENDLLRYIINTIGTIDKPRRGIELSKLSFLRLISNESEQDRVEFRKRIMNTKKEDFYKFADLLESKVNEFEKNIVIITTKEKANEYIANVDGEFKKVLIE

## 1-({3-[(4,5-Diphenyl-1-imidazolinyl)methyl]-5-methoxyphenyl}methyl)-4,5-diphenylimidazoline [SAR 13]
P. falciparum
  in vitro potency compared with A1: more potent
P. berghei [1]; 20 mg/kg
  in vivo activity in 4-day suppressive test: highest activity
P. berghei [1]
  dose required to achieve >95% killing: 20 mg/kg

## 1-({6-[(4,5-Diphenyl-1-imidazolinyl)methyl]-2-pyridyl}methyl)-4,5-diphenylimidazoline [SAR 14]
P. falciparum
  in vitro potency compared with A1: more potent
P. berghei [1]
  dose required to achieve >95% killing: 30 mg/kg

## C1=NC(c2ccccc2)C(c2ccccc2)N1Cc1cccc(CN2C=NC(c3ccccc3)C2c2ccccc2)c1 (centres unmarked) [A1, 1-({m-[(4,5-Diphenyl-1-imidazolinyl)methyl]phenyl}methyl)-4,5-diphenylimidazoline]
P. falciparum; Plasmodium falciparum
  IC50: 120 nM
P. berghei [1]
  dose required to achieve >95% killing: 30 mg/kg
[2]
  toxicity: Toxicity was not observed

## C[C@@H]1CC[C@H]2[C@@H](C)C(=O)O[C@@H]3O[C@@]4(C)CC[C@@H]1[C@]32OO4 [artemisinin]
P. berghei [3]
  reduction of parasitemia: unable to further reduce parasitemia beyond day 3

## C[C@@H]1C[C@@H]([C@H](O)CC2CC(=O)NC(=O)C2)C(=O)[C@@H](C)C1 [cyclohexamine]
[4]
  proteolytic activity of FLN: No inhibition of proteolytic activity

## C1=N[C@@H](c2ccccc2)[C@H](c2ccccc2)N1Cc1cccc(CN2C=N[C@@H](c3ccccc3)[C@@H]2c2ccccc2)c1 [imidazole variant, (4S,5S)-1-[(m-{[(4S,5S)-4,5-Diphenyl-1-imidazolyl]methyl}phenyl)methyl]-4,5-diphenylimidazole]
P. falciparum
  IC50: 4690 nM
